Assay results published in patent publication US6857485B2, “Shale hydration inhibition agent and method of use” (M-I LLC, priority 2000, dated 2005).

Columns and labels:
[1] = Bentonite inhibition by daily addition of bentonite (Example 7); conditions: for 300 rpm Rheologies / 600 rpm Rheologies / 3 rpm Rheologies / 10 Min Gels / Plastic Viscosity / Yield Point: 10 ppb inhibitor; for 300 rpm Rheologies / 600 rpm Rheologies: Heat Aged (150° F.); for 3 rpm Rheologies / 10 Min Gels / Plastic Viscosity / Yield Point: Heat Aged (150°)
Description: This test procedure uses pint jars that are filled with one barrel equivalent of tap water and 10 ppb of a shale inhibitor. Tap water was used as a control sample. All samples were adjusted to at least a pH of 9 and treated with a 10 ppb portion of M-I GEL (bentonite) at a medium shear rate. After stirring for 30 minutes, the rheologies were measured and then the samples were heat aged overnight at 150° F. After the samples were cooled their rheologies and pHs were recorded. All samples were then adjusted to at least a pH 9 before treating them again with bentonite as previously described. This procedure was carried out for each sample until all were too thick to measure.

[2] = Bentonite Hydration Study, 50 ppb bentonite (Example 6)
Description: In this procedure a pint jar was filled with one barrel equivalent of tap water and test sample, adjusted the pH to at least 9 and treated with a 50 ppb portion M-I GEL (bentonite) at a medium shear rate. After stirring for 30 minutes, the rheologies were measured and then the samples were heat aged overnight at 150° F. After the samples were cooled their rheologies and pHs were recorded. The following data is representative of how the rheologies are affected by the addition of the 50 ppb of bentonite in tap water treated with the experimental inhibitors.

[3] = Hot-Rolling Dispersion in fresh water, field cuttings; conditions: 350 ml freshwater with 10.5 g shale inhibitor, hot rolled 16 hours at 150° F.
Description: (§1) Synthesis of the amine salt was carried out as previously disclosed above. Fresh water was utilized as the base fluid in this example.
(§2) A hot-rolling dispersion test was conducted using samples of Oxford shale, Foss Eikeland shale and actual shale drilling cutting recovered from a well in the field. […] The resulting mixture was hot rolled for 16 hours at 150° F. After rolling, the remaining shale cuttings were screened from the base fluid using a US 20 mesh screen and washed clean of base fluid with 10% potassium chloride aqueous solution. After drying the samples, they were weighed and the percentage of recovered shale was calculated.

[4] = Hot-Rolling Dispersion in fresh water, Oxford shale; conditions: 350 ml freshwater with 10.5 g shale inhibitor, hot rolled 16 hours at 150° F.
Description: as §1, §2

[5] = Hot-Rolling Dispersion in fresh water, Foss Eikeland shale; conditions: 350 ml freshwater with 10.5 g shale inhibitor, hot rolled 16 hours at 150° F.
Description: as §1, §2

[6] = Viscosity of product from neutralization of Jeffamine D-230 with acids; type: physicochemical; conditions: for Viscosity (centipoises) at pH 9.5: Jeffamine D-230 neutralized with the acid to pH 9.5; for Viscosity (centipoises) at pH 10.5: Jeffamine D-230 neutralized with the acid to pH 10.5
Text: Synthesis of the salt: Synthesis of the salts from the free amine compounds is simple and should be well known and within the skill of a person of ordinary skill in the art. In one method the salt is formed in situ within a fully formulated mud by the addition of the acid directly to the mud. Alternatively the amine compound may be neutralized first with acid and then the salt added to the mud. When conducting the neutralization reaction between the amine compound and the acid compound either concentrated or diluted acid may be used. When concentrated acid is utilized, typically a slurry of the salt is formed. When the acid is diluted in water, an aqueous solution containing the amine salt is formed.

Compound: COCCOC(C)COC(C)COC(C)COC(C)COC(C)COC(C)COC(C)COC(C)COCC(C)N (stereo not shown) [Jeffamine M-600]
- 300 rpm Rheologies ([1]; Bentonite 30 lb/bbl): 9
- 600 rpm Rheologies ([1]; Bentonite 30 lb/bbl): 18
- 3 rpm Rheologies ([1]; Bentonite 30 lb/bbl): 0
- 10 Min Gels ([1]; Bentonite 30 lb/bbl): 0 lbs/100 ft^2
- Plastic Viscosity ([1]; Bentonite 30 lb/bbl): 9 CPS
- Yield Point ([1]; Bentonite 30 lb/bbl): 1 lbs/100 ft^2
- 300 rpm Rheologies ([1]; Bentonite 40 lb/bbl): 18
- 600 rpm Rheologies ([1]; Bentonite 40 lb/bbl): 35
- 3 rpm Rheologies ([1]; Bentonite 40 lb/bbl): 0
- 10 Min Gels ([1]; Bentonite 40 lb/bbl): 0 lbs/100 ft^2
- Plastic Viscosity ([1]; Bentonite 40 lb/bbl): 16 CPS
- Yield Point ([1]; Bentonite 40 lb/bbl): 1 lbs/100 ft^2
- 300 rpm Rheologies ([1]; Bentonite 50 lb/bbl): 41
- 600 rpm Rheologies ([1]; Bentonite 50 lb/bbl): 74
- 3 rpm Rheologies ([1]; Bentonite 50 lb/bbl): 0
- 10 Min Gels ([1]; Bentonite 50 lb/bbl): 0 lbs/100 ft^2
- Plastic Viscosity ([1]; Bentonite 50 lb/bbl): 33 CPS
- Yield Point ([1]; Bentonite 50 lb/bbl): 8 lbs/100 ft^2
- 300 rpm Rheologies ([1]; Bentonite 60 lb/bbl): 71
- 600 rpm Rheologies ([1]; Bentonite 60 lb/bbl): 146
- 3 rpm Rheologies ([1]; Bentonite 60 lb/bbl): 0
- 10 Min Gels ([1]; Bentonite 60 lb/bbl): 0 lbs/100 ft^2
- Plastic Viscosity ([1]; Bentonite 60 lb/bbl): 75 CPS
- Yield Point ([1]; Bentonite 60 lb/bbl): 4 lbs/100 ft^2
- 300 rpm Rheologies ([1]; Bentonite 70 lb/bbl): 121
- 600 rpm Rheologies ([1]; Bentonite 70 lb/bbl): 259
- 3 rpm Rheologies ([1]; Bentonite 70 lb/bbl): 0
- 10 Min Gels ([1]; Bentonite 70 lb/bbl): 3 lbs/100 ft^2
- Plastic Viscosity ([1]; Bentonite 70 lb/bbl): 138 CPS
- Yield Point ([1]; Bentonite 70 lb/bbl): 17 lbs/100 ft^2
- shale hydration inhibition, judgement ([1]; daily addition of bentonite): performs as a shale hydration inhibitor
- shale hydration inhibition, judgement [2]: performed well as shale hydration inhibitors
- Gels 10 sec. ([2]; Heat Aged Rheology (150° F.)): 1 lbs/100 ft^2
- Gels 10 min. ([2]; Heat Aged Rheology (150° F.)): 1 lbs/100 ft^2
- PV ([2]; Heat Aged Rheology (150° F.)): 16 CPS
- Rheology 3 RPM ([2]; Heat Aged Rheology (150° F.)): 1
- Rheology 6 RPM ([2]; Heat Aged Rheology (150° F.)): 1
- Rheology 100 RPM ([2]; Heat Aged Rheology (150° F.)): 10
- Rheology 200 RPM ([2]; Heat Aged Rheology (150° F.)): 17
- Rheology 300 RPM ([2]; Heat Aged Rheology (150° F.)): 24
- Rheology 600 RPM ([2]; Heat Aged Rheology (150° F.)): 40
- YP ([2]; Heat Aged Rheology (150° F.)): 8 lbs/100 ft^2
- pH ([2]; Heat Aged Rheology (150° F.)): 11.1
- Gels 10 sec. ([2]; Initial Rheology): 11 lbs/100 ft^2
- Gels 10 min. ([2]; Initial Rheology): 25 lbs/100 ft^2
- PV ([2]; Initial Rheology): 19 CPS
- Rheology 3 RPM ([2]; Initial Rheology): 4
- Rheology 6 RPM ([2]; Initial Rheology): 5
- Rheology 100 RPM ([2]; Initial Rheology): 17
- Rheology 200 RPM ([2]; Initial Rheology): 25
- Rheology 300 RPM ([2]; Initial Rheology): 33
- Rheology 600 RPM ([2]; Initial Rheology): 52
- YP ([2]; Initial Rheology): 14 lbs/100 ft^2
- pH ([2]; Initial Rheology): 11.1

Compound: O=P(O)(O)O [Phosphoric acid]
- % recovered [3]: 42.6%
- % recovered [4]: 87.8%
- % recovered [5]: 69.1%
- Viscosity (centipoises) at pH 9.5 [6]: slurry
- Viscosity (centipoises) at pH 10.5 [6]: slurry

Compound: CC(=O)O [Acetic acid]
- % recovered [3]: 47.6%
- % recovered [4]: 88.0%
- % recovered [5]: 72.4%
- Viscosity (centipoises) at pH 9.5 [6]: 1425 cps
- Viscosity (centipoises) at pH 10.5 [6]: 33 cps

Compound: O=[N+]([O-])O [Nitric acid]
- % recovered [3]: 45.7%
- % recovered [4]: 87.6%
- % recovered [5]: 69.1%
- Viscosity (centipoises) at pH 9.5 [6]: 610 cps
- Viscosity (centipoises) at pH 10.5 [6]: 120 cps

Compound: Citric acid
- % recovered [4]: 87.0%
- % recovered [5]: 78.0%
- Viscosity (centipoises) at pH 9.5 [6]: 2000 cps
- Viscosity (centipoises) at pH 10.5 [6]: 180 cps
